Like-named read-outs stand apart in the source and are kept apart here. Peptide text beside a SMILES is read from it. * marks the point of attachment. βNA = c1ccc2cc(N*)ccc2c1
Columns and labels:
E. coli AG100 = experiment: EtBr efflux by real-time fluorometry; details: 80 µM
Method: Control tubes with only cells and cells with and without 0.4% glucose were included. The fluorescence was measured in a Rotor-Gene 3000 and the data was acquired every 30 s for 30 min at 37 °C. The efflux activity was quantified by comparing the fluorescence data obtained under conditions that promote efflux (presence of glucose and absence of efflux inhibitor) with the data from the control in which the bacteria are under conditions of no efflux (presence of an inhibitor and no energy source).

E. coli AG100A = experiment: microbe, parasite or virus in culture; type: cell-based, Escherichia coli; details: for MIC: Escherichia coli, AG100A
E. coli AG100tet = experiment: microbe, parasite or virus in culture; type: cell-based, Escherichia coli; details: for MIC: Escherichia coli, AG100TET
Method: The assays were performed in triplicate and the MIC value was given as result of at least two concordant values.

NC(N)=NCCC[C@H](NC(=O)[C@@H](N)Cc1ccccc1)C(=O)Nc1ccc2ccccc2c1 [PAβN] (H-Phe-Arg-βNA)
EtBr fluorescence (Channel Cycling A.530/585hp) (E. coli AG100; cycle 18, + glucose): 1.167
EtBr fluorescence (Channel Cycling A.530/585hp) (E. coli AG100; cycle 18, without glucose): 1.283
EtBr fluorescence (Channel Cycling A.530/585hp) (E. coli AG100; cycle 19, + glucose): 1.179
EtBr fluorescence (Channel Cycling A.530/585hp) (E. coli AG100; cycle 19, without glucose): 1.241
EtBr fluorescence (Channel Cycling A.530/585hp) (E. coli AG100; cycle 20, + glucose): 1.201
EtBr fluorescence (Channel Cycling A.530/585hp) (E. coli AG100; cycle 20, without glucose): 1.199
EtBr fluorescence (Channel Cycling A.530/585hp) (E. coli AG100; cycle 21, + glucose): 1.201
EtBr fluorescence (Channel Cycling A.530/585hp) (E. coli AG100; cycle 21, without glucose): 1.185
EtBr fluorescence (Channel Cycling A.530/585hp) (E. coli AG100; cycle 22, + glucose): 1.145
EtBr fluorescence (Channel Cycling A.530/585hp) (E. coli AG100; cycle 22, without glucose): 1.19
EtBr fluorescence (Channel Cycling A.530/585hp) (E. coli AG100; cycle 23, + glucose): 1.181
EtBr fluorescence (Channel Cycling A.530/585hp) (E. coli AG100; cycle 23, without glucose): 1.1696
EtBr fluorescence (Channel Cycling A.530/585hp) (E. coli AG100; cycle 24, + glucose): 1.1726
EtBr fluorescence (Channel Cycling A.530/585hp) (E. coli AG100; cycle 24, without glucose): 1.092
EtBr fluorescence (Channel Cycling A.530/585hp) (E. coli AG100; cycle 25, + glucose): 1.158
EtBr fluorescence (Channel Cycling A.530/585hp) (E. coli AG100; cycle 25, without glucose): 1.1723
EtBr fluorescence (Channel Cycling A.530/585hp) (E. coli AG100; cycle 26, + glucose): 1.17
EtBr fluorescence (Channel Cycling A.530/585hp) (E. coli AG100; cycle 26, without glucose): 1.164
EtBr fluorescence (Channel Cycling A.530/585hp) (E. coli AG100; cycle 27, + glucose): 1.169
EtBr fluorescence (Channel Cycling A.530/585hp) (E. coli AG100; cycle 27, without glucose): 1.126
EtBr fluorescence (Channel Cycling A.530/585hp) (E. coli AG100; cycle 28, + glucose): 1.177
EtBr fluorescence (Channel Cycling A.530/585hp) (E. coli AG100; cycle 28, without glucose): 1.147
EtBr fluorescence (Channel Cycling A.530/585hp) (E. coli AG100; cycle 29, + glucose): 1.1781
EtBr fluorescence (Channel Cycling A.530/585hp) (E. coli AG100; cycle 29, without glucose): 1.123
EtBr fluorescence (Channel Cycling A.530/585hp) (E. coli AG100; cycle 30, + glucose): 1.125
EtBr fluorescence (Channel Cycling A.530/585hp) (E. coli AG100; cycle 30, without glucose): 1.105
EtBr fluorescence (Channel Cycling A.530/585hp) (E. coli AG100; cycle 31, + glucose): 1.166
EtBr fluorescence (Channel Cycling A.530/585hp) (E. coli AG100; cycle 31, without glucose): 1.145
EtBr fluorescence (Channel Cycling A.530/585hp) (E. coli AG100; cycle 32, + glucose): 1.148
EtBr fluorescence (Channel Cycling A.530/585hp) (E. coli AG100; cycle 32, without glucose): 1.083
EtBr fluorescence (Channel Cycling A.530/585hp) (E. coli AG100; cycle 33, + glucose): 1.1593
EtBr fluorescence (Channel Cycling A.530/585hp) (E. coli AG100; cycle 33, without glucose): 1.053
EtBr fluorescence (Channel Cycling A.530/585hp) (E. coli AG100; cycle 34, + glucose): 1.173
EtBr fluorescence (Channel Cycling A.530/585hp) (E. coli AG100; cycle 34, without glucose): 1.055
EtBr fluorescence (Channel Cycling A.530/585hp) (E. coli AG100; cycle 35, + glucose): 1.1603
EtBr fluorescence (Channel Cycling A.530/585hp) (E. coli AG100; cycle 35, without glucose): 1.086
EtBr fluorescence (Channel Cycling A.530/585hp) (E. coli AG100; cycle 36, + glucose): 1.157
EtBr fluorescence (Channel Cycling A.530/585hp) (E. coli AG100; cycle 36, without glucose): 1.095
EtBr fluorescence (Channel Cycling A.530/585hp) (E. coli AG100; cycle 37, + glucose): 1.1393
EtBr fluorescence (Channel Cycling A.530/585hp) (E. coli AG100; cycle 37, without glucose): 1.081
EtBr fluorescence (Channel Cycling A.530/585hp) (E. coli AG100; cycle 38, + glucose): 1.174
EtBr fluorescence (Channel Cycling A.530/585hp) (E. coli AG100; cycle 38, without glucose): 1.066
EtBr fluorescence (Channel Cycling A.530/585hp) (E. coli AG100; cycle 39, + glucose): 1.096
EtBr fluorescence (Channel Cycling A.530/585hp) (E. coli AG100; cycle 39, without glucose): 1.058
EtBr fluorescence (Channel Cycling A.530/585hp) (E. coli AG100; cycle 40, + glucose): 1.115
EtBr fluorescence (Channel Cycling A.530/585hp) (E. coli AG100; cycle 40, without glucose): 1.043
EtBr fluorescence (Channel Cycling A.530/585hp) (E. coli AG100; cycle 41, + glucose): 1.134
EtBr fluorescence (Channel Cycling A.530/585hp) (E. coli AG100; cycle 41, without glucose): 1.067
EtBr fluorescence (Channel Cycling A.530/585hp) (E. coli AG100; cycle 42, + glucose): 1.162
EtBr fluorescence (Channel Cycling A.530/585hp) (E. coli AG100; cycle 42, without glucose): 1.058
EtBr fluorescence (Channel Cycling A.530/585hp) (E. coli AG100; cycle 43, + glucose): 1.125
EtBr fluorescence (Channel Cycling A.530/585hp) (E. coli AG100; cycle 43, without glucose): 1.031
EtBr fluorescence (Channel Cycling A.530/585hp) (E. coli AG100; cycle 44, + glucose): 1.108
EtBr fluorescence (Channel Cycling A.530/585hp) (E. coli AG100; cycle 44, without glucose): 1.002
EtBr fluorescence (Channel Cycling A.530/585hp) (E. coli AG100; cycle 45, without glucose): 0.9943
EtBr fluorescence (Channel Cycling A.530/585hp) (E. coli AG100; cycle 46, without glucose): 1.025
EtBr fluorescence (Channel Cycling A.530/585hp) (E. coli AG100; cycle 47, without glucose): 1.03
EtBr fluorescence (Channel Cycling A.530/585hp) (E. coli AG100; cycle 48, without glucose): 1.056
EtBr fluorescence (Channel Cycling A.530/585hp) (E. coli AG100; cycle 49, without glucose): 1.07
EtBr fluorescence (Channel Cycling A.530/585hp) (E. coli AG100; cycle 50, without glucose): 1.062
EtBr fluorescence (Channel Cycling A.530/585hp) (E. coli AG100; cycle 51, without glucose): 1.026
EtBr fluorescence (Channel Cycling A.530/585hp) (E. coli AG100; cycle 52, without glucose): 1.029
EtBr fluorescence (Channel Cycling A.530/585hp) (E. coli AG100; cycle 53, without glucose): 1.04
EtBr fluorescence (Channel Cycling A.530/585hp) (E. coli AG100; cycle 54, without glucose): 1.019
EtBr fluorescence (Channel Cycling A.530/585hp) (E. coli AG100; cycle 55, without glucose): 0.9589
EtBr fluorescence (Channel Cycling A.530/585hp) (E. coli AG100; cycle 56, without glucose): 0.9927
EtBr fluorescence (Channel Cycling A.530/585hp) (E. coli AG100; cycle 57, without glucose): 1.017
EtBr fluorescence (Channel Cycling A.530/585hp) (E. coli AG100; cycle 58, without glucose): 0.9905
EtBr fluorescence (Channel Cycling A.530/585hp) (E. coli AG100; cycle 59, without glucose): 1.041
EtBr fluorescence (Channel Cycling A.530/585hp) (E. coli AG100; cycle 60, without glucose): 1.02
EtBr fluorescence (Channel Cycling A.530/585hp) (E. coli AG100; cycle 61, without glucose): 1.0374
effect on OFX and EtBr MICs (E. coli AG100A; AG100A (pump-deficient strain)): no effect
reduction in OXA MIC (E. coli AG100A; AG100A (pump-deficient strain)): 4 fold
reduction in TET MIC (E. coli AG100A; AG100A (pump-deficient strain)): 16 fold
MIC (E. coli AG100A; read-out: MIC of EtBr in presence of the efflux inhibitor): 3.12 µg/mL
MIC (E. coli AG100A; read-out: MIC of OFX in presence of the efflux inhibitor): 0.03 µg/mL
MIC (E. coli AG100A; read-out: MIC of OXA in presence of the efflux inhibitor): 0.25 µg/mL
MIC (E. coli AG100A; read-out: MIC of TET in presence of the efflux inhibitor): 0.03 µg/mL
decrease in EtBr MIC (E. coli AG100tet; AG100tet (AcrAB-overexpressing strain)): 128 fold
MIC (E. coli AG100tet; read-out: MIC of EtBr in presence of the efflux inhibitor, AG100tet, inhibitor 40 μM): 256 µg/mL
MIC (E. coli AG100tet; read-out: MIC of EtBr in presence of the efflux inhibitor, AG100tet, inhibitor 80 μM): 128 µg/mL
MIC (E. coli AG100tet; read-out: MIC of EtBr in presence of the efflux inhibitor, AG100tet, inhibitor 160 μM): 4 µg/mL
MIC (E. coli AG100tet; read-out: MIC of OFX in presence of the efflux inhibitor, AG100tet, inhibitor 40 μM): 0.06 µg/mL
MIC (E. coli AG100tet; read-out: MIC of OFX in presence of the efflux inhibitor, AG100tet, inhibitor 80 μM): 0.03 µg/mL
MIC (E. coli AG100tet; read-out: MIC of OFX in presence of the efflux inhibitor, AG100tet, inhibitor 160 μM): 0.03 µg/mL
MIC (E. coli AG100tet; read-out: MIC of OXA in presence of the efflux inhibitor, AG100tet, inhibitor 40 μM): 256 µg/mL
MIC (E. coli AG100tet; read-out: MIC of OXA in presence of the efflux inhibitor, AG100tet, inhibitor 80 μM): 256 µg/mL
MIC (E. coli AG100tet; read-out: MIC of OXA in presence of the efflux inhibitor, AG100tet, inhibitor 160 μM): 64 µg/mL
MIC (E. coli AG100tet; read-out: MIC of TET in presence of the efflux inhibitor, AG100tet, inhibitor 40 μM): 8 µg/mL
MIC (E. coli AG100tet; read-out: MIC of TET in presence of the efflux inhibitor, AG100tet, inhibitor 80 μM): 4 µg/mL
MIC (E. coli AG100tet; read-out: MIC of TET in presence of the efflux inhibitor, AG100tet, inhibitor 160 μM): 2 µg/mL
